Values of other authors in US20190175510A1, “PHARMACEUTICAL MATRIX FORMULATIONS COMPRISING DIMETHYL FUMARATE” (BIOGEN MA INC., priority 2014, published 2019).
Structures can show the parent of a compound that is named as a salt.

Conditions: species not stated

In the case of COC(=O)/C=C/C(=O)O [MMF, monomethyl fumarate], the “half-life of MMF” value is listed as “approximately 1 hour”.
